How the values were obtained:
[1] = Site of action: ICV administration, blood pressure; format: in vivo; conditions: dose 0.34-1.36 (column head: umol/kg i.d.)
[2] = system: Langendorffs perfused rat heart preparation; assay: Langendorff perfused rat heart, chronotropic effect
[3] = system: Naturally occuring hypertensive cat; assay: Effect on blood pressure, heart rate and adrenaline vasopressor response, anaesthetized naturally hypertensive cat; format: in vivo
Description: (§1) 2. Effect on blood pressure, heart rate and adrenaline vasopressor response of anaesthetized (pentobarbitone sodium 40 & 60 mg/kg i.p. in cat and rat respectively) normotensive & hypertensive rat & cat model preparations.
(§2) • (a) Cats (2.6-4.0 kg) of either sex anaesthetized with pentobarbitone sodium (40 mg/kg i.v.) and showing basal mean arterial blood pressure below 150 mm (Hg) were categorised as normotensive and above 150 mm Hg as hypertensive. Arterial blood pressure (BP) was recorded from one of the carotid artery through a stathum P23 DC pressure transducer and 7P1 low level DC preamplifier on a Grass Model P7 Polygraph, Signals from 7P1 preamplifier were used to trigger 7P4 Tachograph preamplifier for recording the heart rate (HR). Right femoral vein and Trachea were cannulated for intravenous injections and artificial ventilation respectively. Control responses to intravenous injection of noradrenaline (2-4 ug); acetyl choline (1-2 ug); histamine ([…]) and isoprenaline (1-2 ug) were taken before and after the administration of test doses of each compounds.

[4] = system: Spinal transected cat; assay: Site of action: spinal transected cat, blood pressure; format: in vivo; conditions: dose 2-10 umol/kg i.d.
[5] = system: cat; assay: Comparative antihypertensive effect with clinically used antihypertensive drugs in cat; format: in vivo; conditions: 2 uMol/kg i.v.
Description: (4) Comparative antihypertensive effect with clinically used antihypertensive drugs at 2 uMol/kg i.v. dose in cat

[6] = system: cat; assay: Effect on blood pressure and adrenaline vasopressor response in anaesthetized cat, i.v. (Table 2); format: in vivo
Description: as §2

[7] = system: histamine induced bronchoconstriction; assay: Konzett and Rossler preparation, histamine induced bronchoconstriction; format: in vivo
[8] = system: Rat hind limb perfusion; assay: Site of action: rat hind limb perfusion, flow; format: in vivo
[9] = system: Normotensive rat model preparation; assay: Effect on blood pressure, heart rate and adrenaline vasopressor response, anaesthetized normotensive rat; format: in vivo
Description: as §1

[10] = system: Langendorff perfused rat heart preparation; assay: Cardioprotective activity, Langendorff perfused rat heart, prolonged ischemic insult, compound given at reperfusion
Description: Further, in Langendorff perfused rat heart preparation subjected to even upto 90 min. global ischemia, the compound at 0.001 ug/ml conc. given at the time of reperfusion revived normal rhythmic contraction started within 2 min. (Table 1) and incidence of reperfusion induced arrhythmia were abolished. Table 1: Compound administered at the time of reperfusion at the dose of 0.001 ug/ml on prolong period (90 min.) of ischemic insult.
(§3) The rats were killed by decapitation, heart were rapidly excised and placed in ice-cold HEPES tyrode buffer. Then isolated hearts were perfused retrogradely through coronary arteries using the Langendorff technique. The perfusion buffer consisted (in mM) NaCl 137, KCl 5.4, CaCl2 1.8, MgCl2 1.0, glucose 11.2 and HEPES 3.0. The buffer (pH 7.4) was continuously gassed with oxygen and maintained at 37°C. Coronary flow rate was maintained at 10 ml/min. The heart contracted spontaneously.
(§4) The perfused heart was allowed to equilibrate for 30 min. before initiation of any insult protocol. The text compounds were given at the time of reperfusion. Some of the compounds were dissolved in ethanol. Final concentration of ethanol in the perfusion buffer was 0.0001% and had no effect of its own on the parameter used. • (a) For brief period of ischemic insult (Hideo et al.). Pathophysiology and pathogenesis of stunned myocardium. J. Clin. Invest., 79, 950-961, 1987). Ischemia was initiated by stopping the flow for 16 min. followed by 30 min. reperfusion period. The durations were decided on the initial pilot experiments leading to 50% recovery of function. • (b) For prolong period of ischemic insult (Becker, L.C. & Ambrosio, G. Myocardial consequences of reperfusion. Prog. Cardiovas. Dis., 30, 23-44, 1987). Ischemia was initiated by stopping the flow for […]. followed by 30 min. reperfusion.

[11] = system: Isolated aortic strip; assay: Isolated aortic strip, endothelin induced contraction
[12] = system: Rat aortic ring preparation; assay: Rat aortic ring preparation, NE induced contraction
[13] = system: Hypertensive rat model preparation; assay: Effect on blood pressure, heart rate and adrenaline vasopressor response, anaesthetized hypertensive rat model; format: in vivo
Description: 2. Effect on blood pressure, heart rate and adrenaline vasopressor response of anaesthetized (pentobarbitone sodium 40 & 60 mg/kg i.p. in cat and rat respectively) normotensive & hypertensive rat & cat model preparations. […]

[14] = system: Isolated Guinea pig ileum preparation; assay: Isolated guinea pig ileum, antihistaminic activity; conditions: 0.5-5.0 ug/ml
[15] = Acute toxicity (LD50); conditions: mouse, in vivo, Mice
[16] = system: Langendorff perfused rat heart; assay: Antiischemic activity, Langendorff perfused rat heart, brief (16 min.) ischemic insult, compound given at reperfusion (Table 3); conditions: 0.001 ug/ml at reperfusion
Description: Table 3: Compound administered at the time of reperfusion at a dose of 0.001 ug/ml on brief period (16 min.) of ischemic insult.
as §3, §4

[17] = system: Normotensive cat; assay: Effect on blood pressure, heart rate and adrenaline vasopressor response, anaesthetized normotensive cat; format: in vivo
Description: as §1, §2

[18] = system: cat; assay: Drug antagonism studies of the antihypertensive effect in cat; format: in vivo; conditions: 2 uMol dose i.v.
[19] = dose 20 uMol/kg i.d., in beats/min (unit assumed)
[20] = up to 90 min. global ischemia, 0.001 ug/ml given at the time of reperfusion

O=C1CCCN1CCCN1CCN(c2ccc(F)cc2)CC1 [C6H4-4-F, n=1, 1-[4-(4-fluorophenyl)piperazin-1-yl]-3-[2-oxopyrrolidin-1-yl]propane]
B.P. fall [1]: 8-10%
Dur. [1]: 10 to 15 min
duration of negative chronotropic effect ([2]; 1 ug): 10 min
negative chronotropic effect ([2]; 1 ug): 30%
duration of negative chronotropic effect ([2]; 3 ug): 14 min
negative chronotropic effect ([2]; 3 ug): 26%
duration of negative chronotropic effect ([2]; 5 ug): 5 min
negative chronotropic effect ([2]; 5 ug): 5%
Adrenaline vasopressure response % inhibition ([3]; dose 10 uMol/kg i.d.): 49%
B.P. fall ([3]; dose 10 uMol/kg i.d.): 16%
Dur. ([3]; dose 10 uMol/kg i.d.): 110 min
Heart rate Pre treatment ([3]; dose 10 uMol/kg i.d.): 195/195
Heart rate post treatment ([3]; dose 10 uMol/kg i.d.): 195/195
B.P. fall ([3]; dose 20 uMol/kg i.d.): 22%
Dur. ([3]; dose 20 uMol/kg i.d.): >156.75 min
Heart rate Pre treatment [3, 19]: 177
Heart rate post treatment [3, 19]: 185
B.P. fall [4]: 14-18%
Dur. [4]: 15 to 30 min
B.P. fall [5]: 22%
Dur. [5]: 25 min
inhibition at 2 µmol/kg ([6]; Felis catus, iv, dose 2.0 umol/kg i.v., read-out: Adrenaline vasopressure response % inhibition): 9%
inhibition in vivo at 2 µmol/kg ([6]; Felis catus, iv, dose 2.0 umol/kg i.v., read-out: B.P. fall %): 25%
inhibition at 10 µmol/kg ([6]; Felis catus, iv, dose 10.0 umol/kg i.v., read-out: Adrenaline vasopressure response % inhibition): > 100%
inhibition in vivo at 10 µmol/kg ([6]; Felis catus, iv, dose 10.0 umol/kg i.v., read-out: B.P. fall %): 31%
Dur. ([6]; dose 2.0 umol/kg i.v.): 71 min
Dur. ([6]; dose 10.0 umol/kg i.v.): >112 min
antihistaminic activity against histamine induced bronchoconstriction [7]: some antihistaminic activity
Percent change in flow ([8]; total dose 10 ug): no effect
Percent change in flow ([8]; total dose 25 ug): +35 (Vasodilatation) Percent
Percent change in flow ([8]; total dose 50 ug): +50 (Vasodilatation) Percent
B.P. fall ([9]; dose 2 uMol/kg i.v.): 25%
Dur. ([9]; dose 2 uMol/kg i.v.): 11 min
Heart rate Pre treatment ([9]; dose 2 uMol/kg i.v.): 350 beats/min
Heart rate post treatment ([9]; dose 2 uMol/kg i.v.): 370 beats/min
B.P. fall ([9]; dose 10 uMol/kg i.v.): 10%
Dur. ([9]; dose 10 uMol/kg i.v.): 3 min
Heart rate Pre treatment ([9]; dose 10 uMol/kg i.v.): 315 beats/min
Heart rate post treatment ([9]; dose 10 uMol/kg i.v.): 360 beats/min
B.P. fall ([9]; dose 20 uMol/kg i.v.): 21%
Dur. ([9]; dose 20 uMol/kg i.v.): 27.5 min
Heart rate Pre treatment ([9]; dose 20 uMol/kg i.v.): 315 beats/min
Heart rate post treatment ([9]; dose 20 uMol/kg i.v.): 285 beats/min
Onset ([10]; 0.001 ug/ml at reperfusion, 90 min. ischemic insult): 4 min
incidence of reperfusion induced arrhythmia [10, 20]: abolished
time until normal rhythmic contraction started [10, 20]: ≤ 2 min
Endothelin induced contraction [11]: inhibited significantly
Response to endothelin after washing the preparation ([11]; after washing): relaxation rather than contraction
NE induced contraction [12]: inhibited
Adrenaline vasopressure response % inhibition ([13]; dose 5 uMol/kg i.d.): 33%
B.P. fall ([13]; dose 5 uMol/kg i.d.): 27%
Dur. ([13]; dose 5 uMol/kg i.d.): 51 min
Heart rate Pre treatment ([13]; dose 5 uMol/kg i.d.): 346 beats/min
Heart rate post treatment ([13]; dose 5 uMol/kg i.d.): 320 beats/min
Adrenaline vasopressure response % inhibition ([13]; dose 10 uMol/kg i.d.): 23%
B.P. fall ([13]; dose 10 uMol/kg i.d.): 22%
Dur. ([13]; dose 10 uMol/kg i.d.): 76 min
Heart rate Pre treatment ([13]; dose 10 uMol/kg i.d.): 356 beats/min
Heart rate post treatment ([13]; dose 10 uMol/kg i.d.): 340 beats/min
Adrenaline vasopressure response % inhibition ([13]; dose 20 uMol/kg i.d.): 54%
B.P. fall ([13]; dose 20 uMol/kg i.d.): 29%
Dur. ([13]; dose 20 uMol/kg i.d.): 100 min
Heart rate Pre treatment ([13]; dose 20 uMol/kg i.d.): 310 beats/min
Heart rate post treatment ([13]; dose 20 uMol/kg i.d.): 275 beats/min
antihistaminic activity [14]: significant antihistaminic activity
LD50 ([15]; ip): 147 mg/kg
LD50 ([15]; po): 562 mg/kg
Onset [16]: 1.5 min
Adrenaline vasopressure response % inhibition ([17]; dose 10 uMol/kg i.d.): 26%
B.P. fall ([17]; dose 10 uMol/kg i.d.): 22%
Dur. ([17]; dose 10 uMol/kg i.d.): 85 min
Heart rate Pre treatment ([17]; dose 10 uMol/kg i.d.): 200 beats/min
Heart rate post treatment ([17]; dose 10 uMol/kg i.d.): 170 beats/min
Adrenaline vasopressure response % inhibition ([17]; dose 20 uMol/kg i.d.): 34.75%
B.P. fall ([17]; dose 20 uMol/kg i.d.): 21%
Dur. ([17]; dose 20 uMol/kg i.d.): >102.5 min
Heart rate Pre treatment ([17]; dose 20 uMol/kg i.d.): 185 beats/min
Heart rate post treatment ([17]; dose 20 uMol/kg i.d.): 165 beats/min
reduction of the fall in blood pressure ([18]; glibenclamide pretreatment): only partially reduced
alteration of antihypertensive effect ([18]; pretreatment with atropine sulphate, mepyramine maleate, propranolol, or yohimbine): failed to alter
reduction of antihypertensive effect ([18]; pretreatment with captopril or Dup-753): 33%
reduction of antihypertensive effect ([18]; pretreatment with prazosin): 90%
reduction of antihypertensive effect ([18]; pretreatment with verapamil): 50%

— patent EP0911330B1, “1-(4-Arylpiperazine-1-y1)-3-(2-oxopyrrolidin/piperidin-1-y1) propanes as therapeutic agents for hypertension, ischemia, cardiovascular and other adrenergic receptors related disorders” (Council of Scientific & Industrial Research, priority 1997, dated 1999)
